From ChEMBL document CHEMBL1201862, “PubChem BioAssay data set” (2004)
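Growth conditions: 96-well plates. Treatment: test compound, 48 hours, 5 concentrations. Analysis: linear interpolation between bracketing concentrations; unreached endpoints set to highest concentration. GI50 is the concentration that inhibits growth by half.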 The source made the active and inactive calls. Rule as the data show it: active = GI50 up to about 1.1 µM and inactive = higher.

What was measured:
Assay in all cases: inhibition of tumour cell growth, NCI panel, 48 h
[1] = test system: SN12C
[2] = test system: BT-549
[3] = test system: Malme-3M
[4] = test system: ACHN
[5] = test system: OVCAR-8
[6] = test system: MCF7
[7] = test system: IGROV-1
[8] = test system: UO-31
[9] = test system: MDA-MB-231
[10] = test system: HCT-15
[11] = test system: COLO 205
[12] = test system: T47D
[13] = test system: A549
[14] = test system: HCT-116
[15] = test system: CAKI-1
[16] = test system: HCC 2998
[17] = test system: U-251
[18] = test system: HT-29
[19] = test system: Hs-578T
[20] = test system: SF-539

COc1cc2c(cc1OC)C1c3ccccc3CCCN1CC2 (stereo not given)
GI50 [1]: > 100 µM (inactive)
GI50 [2]: > 100 µM (inactive)
GI50 [3]: > 100 µM (inactive)
GI50 [4]: > 100 µM (inactive)
GI50 [5]: > 100 µM (inactive)
GI50 [6]: > 100 µM (inactive)
GI50 [7]: > 100 µM (inactive)
GI50 [8]: 8.41 µM (inactive)
GI50 [9]: > 100 µM (inactive)
GI50 [10]: > 100 µM
GI50 [11]: > 100 µM (inactive)
GI50 [12]: > 100 µM (inactive)
GI50 [13]: > 100 µM (inactive)
GI50 [14]: 36.4 µM (inactive)
GI50 [15]: > 100 µM (inactive)
GI50 [16]: > 100 µM (inactive)
GI50 [17]: > 100 µM (inactive)
GI50 [18]: 51.2 µM (inactive)
GI50 [19]: > 100 µM (inactive)
GI50 [20]: > 100 µM (inactive)

COC12C=CC(C=C1C#N)CC2.COC12C=CC(CC1)CC2=O (stereo not given)
GI50 [1]: > 100 µM (inactive)
GI50 [2]: > 100 µM (inactive)
GI50 [3]: > 100 µM (inactive)
GI50 [4]: > 100 µM (inactive)
GI50 [5]: > 100 µM (inactive)
GI50 [6]: > 100 µM (inactive)
GI50 [7]: > 100 µM (inactive)
GI50 [8]: > 100 µM (inactive)
GI50 [9]: > 100 µM (inactive)
GI50 [10]: > 100 µM
GI50 [11]: > 100 µM (inactive)
GI50 [12]: > 100 µM (inactive)
GI50 [13]: > 100 µM (inactive)
GI50 [14]: > 100 µM (inactive)
GI50 [15]: > 100 µM (inactive)
GI50 [16]: > 100 µM (inactive)
GI50 [17]: > 100 µM (inactive)
GI50 [18]: > 100 µM (inactive)
GI50 [19]: > 100 µM (inactive)
GI50 [20]: > 100 µM (inactive)

c1ccc2c(c1)CCN1CCc3c([nH]c4ccccc34)C21 (stereo not given)
GI50 [1]: 32.7 µM (inactive)
GI50 [2]: 27.3 µM (inactive)
GI50 [3]: 18.1 µM (inactive)
GI50 [4]: 31.3 µM (inactive)
GI50 [5]: 31.8 µM (inactive)
GI50 [6]: 63.7 µM (inactive)
GI50 [7]: 29.4 µM (inactive)
GI50 [8]: 28.6 µM (inactive)
GI50 [9]: 35.3 µM (inactive)
GI50 [10]: 36.9 µM
GI50 [11]: 21.4 µM (inactive)
GI50 [12]: 32.5 µM (inactive)
GI50 [13]: 37.1 µM (inactive)
GI50 [14]: 24.2 µM (inactive)
GI50 [15]: 30.3 µM (inactive)
GI50 [16]: 17.2 µM (inactive)
GI50 [17]: 34.2 µM (inactive)
GI50 [18]: 26.9 µM (inactive)
GI50 [19]: 53.2 µM (inactive)
GI50 [20]: 49 µM (inactive)

CC1=NN(C(=O)CC(=O)Nc2ccccc2Cl)C(=O)C1/N=N/c1ccc(C(=O)O)cc1 (stereo not given)
GI50 [1]: > 100 µM (inactive)
GI50 [2]: > 100 µM (inactive)
GI50 [3]: > 100 µM (inactive)
GI50 [4]: > 100 µM (inactive)
GI50 [5]: > 100 µM (inactive)
GI50 [6]: > 100 µM (inactive)
GI50 [7]: > 100 µM (inactive)
GI50 [8]: 62.8 µM (inactive)
GI50 [9]: > 100 µM (inactive)
GI50 [10]: > 100 µM
GI50 [11]: > 100 µM (inactive)
GI50 [12]: 53.2 µM (inactive)
GI50 [13]: > 100 µM (inactive)
GI50 [14]: > 100 µM (inactive)
GI50 [15]: > 100 µM (inactive)
GI50 [16]: > 100 µM (inactive)
GI50 [17]: > 100 µM (inactive)
GI50 [18]: 7.73 µM (inactive)
GI50 [19]: > 100 µM (inactive)
GI50 [20]: > 100 µM (inactive)

CC1(C)CC(=O)c2c(-c3ccc(Cl)cc3)c(C#N)c(=S)n(C3OC(CO)C(O)C(O)C3O)c2C1 (stereo not given)
GI50 [1]: 31.7 µM (inactive)
GI50 [2]: 45.9 µM (inactive)
GI50 [3]: 31 µM (inactive)
GI50 [4]: 39 µM (inactive)
GI50 [5]: 35.7 µM (inactive)
GI50 [6]: 33.7 µM (inactive)
GI50 [7]: 56.8 µM (inactive)
GI50 [8]: 29.6 µM (inactive)
GI50 [9]: 33.5 µM (inactive)
GI50 [10]: 21.4 µM
GI50 [11]: 34 µM (inactive)
GI50 [12]: 18.6 µM (inactive)
GI50 [13]: 36.1 µM (inactive)
GI50 [14]: 16 µM (inactive)
GI50 [15]: 78.7 µM (inactive)
GI50 [16]: 36.7 µM (inactive)
GI50 [17]: 21.7 µM (inactive)
GI50 [18]: 26.7 µM (inactive)
GI50 [19]: 25.4 µM (inactive)
GI50 [20]: 25.4 µM (inactive)

N#CC(NNC(=O)Cc1ccccc1)c1c(O)ccc2ccccc12 (stereo not given)
GI50 [1]: 7.93 µM (inactive)
GI50 [2]: 1.73 µM (inactive)
GI50 [3]: 4.4 µM (inactive)
GI50 [4]: 3.4 µM (inactive)
GI50 [5]: 4.17 µM (inactive)
GI50 [6]: 3.15 µM (inactive)
GI50 [7]: 5.31 µM (inactive)
GI50 [8]: 2.84 µM (inactive)
GI50 [9]: 4.19 µM (inactive)
GI50 [10]: 2.7 µM
GI50 [11]: 24.7 µM (inactive)
GI50 [12]: 3.45 µM (inactive)
GI50 [13]: 5.51 µM (inactive)
GI50 [14]: 3.46 µM (inactive)
GI50 [15]: 4.91 µM (inactive)
GI50 [16]: 14.3 µM (inactive)
GI50 [17]: 3.72 µM (inactive)
GI50 [18]: 11.3 µM (inactive)
GI50 [19]: 7.64 µM (inactive)
GI50 [20]: 4.16 µM (inactive)
